Columns and labels:
Test in all cases: relative viability (nuclei count vs DMSO), 5 days (fraction); higher = more cells survive
[1] = compound: CC(O)(CS(=O)(=O)c1ccc(F)cc1)C(=O)Nc1ccc(C#N)c(C(F)(F)F)c1 [Bicalutamide] + CCNC(=O)c1noc(-c2cc(C(C)C)c(O)cc2O)c1-c1ccc(CN2CCOCC2)cc1 [Luminespib] (partner 0.01 µM)
Method in brief: (§1)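 Five library-drug doses in √10 steps were combined with a fixed anchor-drug dose, or a single drug was given alone, by pin tool to lung cancer cell lines in 1536-well plates the day after seeding. Nuclei were stained and counted after 5 days. Relative viability is the nuclei count in treated wells over that in vehicle wells, taken as the median of duplicate plates.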

[2] = compound: C(C(=O)C(=O)O)Br [Bromopyruvate] + N=C(N)NC(=N)NCCc1ccccc1 [Phenformin] (partner 250 µM)
Method in brief: as §1

Bromopyruvate + OSI-027 = compound: C(C(=O)C(=O)O)Br [Bromopyruvate] + COc1cccc2cc(-c3nc([C@H]4CC[C@H](C(=O)O)CC4)n4ncnc(N)c34)[nH]c12 [OSI-027] (partner 0.5 µM)
Method in brief: as §1

[3] = compound: C(C(=O)C(=O)O)Br [Bromopyruvate] + C[C@]1(O)C[C@@H](c2nc(-c3ccc4ccc(-c5ccccc5)nc4c3)c3c(N)nccn32)C1 [Linsitinib] (partner 1 µM)
Method in brief: as §1

Cell Line	relative viability ([1]; first compound 0.08 µM)	relative viability ([1]; first compound 0.253 µM)	relative viability ([1]; first compound 0.8 µM)	relative viability ([1]; first compound 2.53 µM)	relative viability ([2]; first compound 1 µM)	relative viability ([2]; first compound 3.162 µM)	relative viability ([2]; first compound 10 µM)	relative viability ([2]; first compound 31.62 µM)	relative viability ([2]; first compound 100 µM)	relative viability (Bromopyruvate + OSI-027; first compound 1 µM)	relative viability (Bromopyruvate + OSI-027; first compound 3.162 µM)	relative viability (Bromopyruvate + OSI-027; first compound 10 µM)	relative viability (Bromopyruvate + OSI-027; first compound 31.62 µM)	relative viability (Bromopyruvate + OSI-027; first compound 100 µM)	relative viability ([3]; first compound 1 µM)	relative viability ([3]; first compound 3.162 µM)	relative viability ([3]; first compound 10 µM)	relative viability ([3]; first compound 31.62 µM)	relative viability ([3]; first compound 100 µM)
NCI-H1993	0.835	0.894	1.07	0.999	0.492	0.488	0.547	0.495	0.501	0.623	0.513	0.525	0.549	0.539	0.739	0.678	0.707	0.717	0.7
LU99A	0.268	0.236	0.286	0.205	0.751	0.753	0.89	0.921	0.794	0.288	0.27	0.386	0.278	0.317	0.567	0.563	0.552	0.614	0.511
NCI-H1355	0.797	0.694	0.787	0.818	0.473	0.481	0.442	0.483	0.504	0.462	0.455	0.372	0.425	0.498	0.778	0.772	0.914	0.873	0.866
HCC-78	–	–	–	–	0.644	0.719	0.759	0.516	0.657	0.379	0.326	0.403	0.355	0.345	0.457	0.603	0.575	0.629	0.547
NCI-H1563	0.529	0.552	0.567	0.515	0.621	0.748	0.643	0.673	0.657	0.747	0.75	0.758	0.77	0.763	1.19	1.42	1.16	1.23	1.07
HCC-15	0.445	0.294	0.57	0.62	0.472	0.5	0.521	0.466	0.456	0.711	0.779	0.781	0.715	0.654	0.84	0.867	0.924	0.824	0.899
EKVX	0.94	0.871	0.964	0.892	0.256	0.24	0.243	0.246	0.233	0.746	0.691	0.827	0.666	0.761	0.905	1.02	1.11	0.965	1.13
NCI-H2126	0.923	0.904	1.16	0.915	0.556	0.534	0.518	0.54	0.513	0.756	0.707	0.65	0.668	0.824	0.718	0.693	0.697	0.701	0.753

Reference: the supplement of paper PMC10307832
